Tests used:
Assay type in all cases: cell-based
[1] = tested on: HIV isolated from treatment-naïve patients (RHIN segment); test: Anti-HIV drug susceptibility assay (luciferase test vectors, 293 cells), patient-derived RHIN segment
Text: (§1) Patient-derived segment(s) corresponding to either the entire pol gene, encoding HIV protease, reverse transcriptase, integrase, and RNAse H (hereinafter “POL”), or the portion of pol encoding amino acids 319-440 of reverse transcriptase, integrase, and RNAse H (hereinafter “RHIN”), were amplified by the reverse transcription-polymerase chain reaction method (RT-PCR) using viral RNA isolated from viral particles present in the plasma or serum of HIV-infected individuals as follows. Virus was pelleted by centrifugation at 20,400×g for 60 min from plasma (typically, 1 ml) prepared from blood samples collected in evacuated tubes containing either EDTA, acid-citrate dextrose, or heparin as an anticoagulant. Virus particles were disrupted by resuspending the pellets in 200 μl of lysis buffer (4 M guanidine thiocyanate, 0.1 M Tris HCl [pH 8.0], 0.5% sodium lauryl sarcosine, 1% dithiothreitol). RNA was extracted from viral lysates by using oligo(dT) linked to magnetic beads (Dynal, Oslo, Norway). Reverse transcription was performed with Superscript III (Invitrogen) at 50 degrees for 1 hour using primer 1.
From the resultant cDNA either POL or RHIN sequences were amplified using the Advantage High Fidelity PCR kit (BD Biosciences; Clontech). POL amplification products are made using forward Primer 3 containing an ApaI site and reverse Primer 4 containing a Xho 1 site. RHIN amplification products are made using forward Primer 2 containing a PINA1 site and reverse Primer 4 containing a Xho 1 site.
A retroviral vector designed to measure antiretroviral drug susceptibility was constructed by using an infectious molecular clone of HIV-1. The vector, referred to herein as an indicator gene viral vector (IGVV), is replication defective and contains a luciferase expression cassette inserted within a deleted region of the envelope (env) gene. The IGVV is described in U.S. Pat. No. 5,837,464 (International Publication Number WO 97/27319) which is hereby incorporated by reference in its entirety. […]

[2] = tested on: HIV mutants comprising site-directed mutations in integrase; test: Anti-HIV drug susceptibility assay (luciferase test vectors, 293 cells), site-directed integrase mutants; conditions: FIG. 2
Text: A retroviral vector designed to measure antiretroviral drug susceptibility was constructed by using an infectious molecular clone of HIV-1. The vector, referred to herein as an indicator gene viral vector (IGVV), is replication defective and contains a luciferase expression cassette inserted within a deleted region of the envelope (env) gene. The IGVV is described in U.S. Pat. No. 5,837,464 (International Publication Number WO 97/27319) which is hereby incorporated by reference in its entirety. This retroviral vector was further modified to allow insertion of either the entire pol gene (POL) or the portion of pol encoding amino acids 319-440 of reverse transcriptase, the RNase H portion of reverse transcriptase, and integrase (RHIN) by engineering an Xho1 restriction enzyme recognition site into vif. Prior to doing this, an Xho 1 site in nef was deleted. Test vectors (TVs) were constructed by incorporating amplified POL or RHIN into the IGVV by using ApaI and Xho1 or PinAI and Xho1 restriction sites respectively. TVs were prepared as libraries (pools) in order to capture and preserve the pol or RHN sequence heterogeneity of the virus in the patient. […]
Susceptibility tests were carried out with the TV libraries by using viral particles comprising the RTV libraries to infect a host cell in which the expression of the indicator gene is measured. The amount of indicator gene (luciferase) activity detected in infected cells is used as a direct measure of “infectivity,” i.e., the ability of the virus to complete a single round of replication. Thus, drug resistance or sensitivity can be determined by plotting the amount of luciferase activity produced by patient derived viruses in the presence of varying concentrations of the antiviral drug. By identifying the concentration of drug at which luciferase activity is half-maximum, the IC50 of the virus from which patient-derived segment(s) were obtained for the antiretroviral agent can be determined. […]

[3] = tested on: HIV isolated from treatment-naïve patients (POL segment); test: Anti-HIV drug susceptibility assay (luciferase test vectors, 293 cells), patient-derived POL segment; conditions: 30 clinical isolates from treatment-naïve patients, FIG. 5
Text: as §1
From the resultant cDNA either POL or RHIN sequences were amplified using the Advantage High Fidelity PCR kit (BD Biosciences; Clontech). POL amplification products are made using forward Primer 3 containing an ApaI site and reverse Primer 4 containing a Xho 1 site. […]

[4] = 30 clinical isolates from treatment-naïve patients, RHIN segment, FIG. 5

O=C(NCc1ccc(F)cc1)c1nc(N2CCCCS2(=O)=O)c2cccnc2c1O [L-870,810]
mean fold change (FC) in IC50 [1, 4]: 0.86
median fold change (FC) in IC50 [1, 4]: 0.82
mean fold change (FC) in IC50 relative to HIV strain IIIb ([1]; RHIN sequences from 45 treatment-naïve patient viruses, FIG. 4): 0.83
susceptibility (IC50 relative to HIV strain IIIB) ([2]; site-directed integrase mutant N155S): reduced susceptibility
susceptibility (IC50 relative to HIV strain IIIB) ([2]; site-directed integrase mutant V72I/F121Y/T125K): reduced susceptibility
susceptibility (IC50 relative to HIV strain IIIB) ([2]; site-directed integrase mutant): reduced susceptibility
mean fold change (FC) in IC50 [3]: 0.85
median fold change (FC) in IC50 [3]: 0.85

Reference: patent US20090215028A1, “Methods and Compositions for Determining Anti-HIV Drug Susceptibility and Replication Capacity of HIV” (priority 2005, published 2009)
